The text below walks through data of patent EP0711558A1, “Compositions for topical application to skin, hair and nails” (UNILEVER PLC, priority 1994, dated 1996).

For series [1], the system named is Normal human keratinocytes. The series can be described thus: Rate of DNA synthesis in keratinocytes (3H-thymidine incorporation; a decrease indicates growth inhibition / differentiation). The following applies: for cell growth inhibition: Table 1 (image); for activity at 3 µM: 3 μM lipid alone, read-out: DNA synthesis, 0 nM 25-OH-D3. The format is cell-based. As for the experimental part: Methodology Used for Determining the Rate of DNA Synthesis in Keratinocytes After Treatment With Various Actives
• 1. Normal human keratinocytes isolated from neonatal foreskins by trypsin treatment were grown in DME medium/10% fetal calf serum in the presence of irradiated 3T3 mouse fibroblasts for establishing dividing keratinocyte colonies. Keratinocytes were grown under the above condition until their third passage. • 2. For the experiments, third passage keratinocytes were plated into a serum-free keratinocyte growth medium (KGM; obtained from Clonetics Corporation, San Diego, CA) containing 0.15 mM calcium. 20,000 to 30,000 cells were plated into each well of 24 well cell culture plates and grown for 5 days, until the cells reach about 80% confluence. • 3. Medium was changed to fresh medium and the various test materials were added to the medium from an ethanolic stock solution (10 AM). The final ethanol concentration in the cultures was kept below 0.2%. Control cultures received no tested material but were dosed with 0.2% ethanol. Each compound or combination was tested in three separate wells. By 4PM, 1 uCi of ³H-thymidine (Amersham Corp., Sp activity 40 Ci/mmol) was added to the 1 ml medium in each well. The cells were incubated overnight and 24 hours later (10 AM next day) the amount of ³H-thymidine associated with the cellular DNA of keratinocytes was assessed as described below. • 4. The medium was aspirated, and the wells washed with 1 ml phosphate-buffered saline. The DNA and proteins of the cells in the plate were then precipitated by adding 1 ml of ice-cold 10% trichloroacetic acid (TCA). The plates were left on ice for 30 minutes to complete the precipitation process. TCA was then aspirated and each well was then washed four times with 5% TCA. The plates were then dried on a filter pad and the cells in the wells were dissolved in 0.5 ml of 0.1 N sodium hydroxide. The sodium hydroxide was then neutralized using 0.1 N hydrochloric acid and the solution (1 ml total volume) was then transferred to a scintillation vial. 100 ul samples from each vial were used for protein assay using BCA protein assay reagent obtained from Pierce Chemical Company. 8 ml of a scintillation fluid (Ecolume) was added to the rest of the solution in the vial, and the vials were counted in a scintillation counter to determine the amount of radioactivity in each vial. The DNA synthesis rate was then calculated as cpm ³H thymidine incorporated into total cellular DNA/microgram of cell protein for each individual well. Mean and standard deviation for each group was also calculated. […] All lipids listed in Tables 1-5 below were synthesized in-house. 25-OH-D₃ and 1,25-(OH)₂D₃ were obtained from Hoffman La Roche. Vitamin D ₃ was obtained from Sigma. • 6.

Series [2] has as its system Normal human keratinocytes. The series can be described thus: Vitamin D3 metabolites' uptake by keratinocytes (cell associated radioactivity). The format is in vitro ADME. The following applies: for cell associated radioactivity: 60 picomolar; for rate of uptake by keratinocytes: Table 6, in words. As for the experimental part:
Vitamin D₃ Metabolites' Uptake:
Normal human keratinocytes were grown to confluence in Keratinocyte growth medium (KGM) containing 0.15 mM calcium. Medium was changed to fresh medium. The cells were then incubated in duplicate with 10,000 cpm (60 picomolar, or 25 picogram/ml medium) of 25-OH-D₃ or 1,25-(OH) ₂D₃ for various times (0 to 240 minutes). At different time intervals indicated in the Table below, the medium of appropriate wells were aspirated, and the wells were washed three times with a 0.2% bovine serum albumin solution in 50 mM Tris/0.15 M sodium chloride buffer pH 7.4. After the wash the cells in the wells were dissolved in 0.1 N sodium hydroxide, neutralized with 0. 1 N hydrochloric acid, mixed with 5 ml of scintillation fluid (Ecolume) and counted in a beta counter. The amount of cpm associated with the cells was calculated as the percent of total cpm added for each time point studied. Data in the table is expressed as cell associated radioactivity as % of total added. Each reported result is a mean of duplicate determinations.

The next series relates to keratinocytes. To be noted: as shown by Bikle et al.; cited from earlier work.
Where [3] appears, read: 100 nM, alone, 25-OH-D3 in two experiments, 1,25-(OH)2D3 in one experiment.
Setting [4] is: 1000 nM, compound alone, consistently observed only at this concentration.
Setting [5] is: 0 minutes, mean of duplicate determinations.
Where [6] appears, read: Homo sapiens, Keratinocyte, 24 h, Table 5.

Where two headings read alike, the source gives them in different places.

For the molecule `C=C1/C(=C\C=C2/CCC[C@]3(C)[C@@H]([C@H](C)CCCC(C)(C)O)CC[C@@H]23)C[C@@H](O)C[C@@H]1O` [1,25-(OH)2D3, 1,25-dihydroxycholecalciferol], the values for the cell growth inhibition entry in series [1] (setting [3]) and in series [1] (setting [4]) were “cell growth inhibition was also observed” and “statistically significant cell growth inhibition”, respectively. Moreover, the cell associated radioactivity was 0.8 % of total added in series [2] (setting [5]); 2.7 % of total added in series [2] (2 minutes); 4.2 % of total added in series [2] (5 minutes); 13.0 % of total added in series [2] (10 minutes); 10.0 % of total added in series [2] (15 minutes); 20.0 % of total added in series [2] (30 minutes). Besides, the results for the cell associated radioactivity in series [2] (60 minutes), in series [2] (120 minutes) and in series [2] (240 minutes) were 15.6 % of total added, 26.2 % of total added and 30.8 % of total added, respectively. Moreover, the “rate of uptake by keratinocytes” value in series [2] was “rapidly taken up”. Further, the catabolism by keratinocytes result with keratinocytes is “catabolized to inactive metabolites rapidly”.
Consider `C=C1CC[C@H](O)C/C1=C/C=C1\CCC[C@]2(C)[C@@H]([C@H](C)CCCC(C)(C)O)CC[C@@H]12` [Formula 25-OH-D3, 25-hydroxycholecalciferol], for which the activity at 0.001 µM in series [1] (Homo sapiens, Keratinocyte, 24 h, 1 nM 25-OH-D3, no ceramide, read-out: DNA synthesis, 25-OH-D3 alone) is 99.3 ± 1.91%. Moreover, the activity at 0.01 µM was determined as 97.2 ± 5.92% in series [1] (Homo sapiens, Keratinocyte, 24 h, 10 nM 25-OH-D3, no ceramide, read-out: DNA synthesis, 25-OH-D3 alone); 95.3 ± 6.9% in series [1] (Homo sapiens, Keratinocyte, 24 h, Table 4, 10 nM vitamin D3 or its metabolite, no ceramide, read-out: DNA synthesis, No ceramide); 95.3 ± 6.9% in series [1] (Homo sapiens, Keratinocyte, 24 h, Table 5, 10 nM 25-OH-D3, No ceramide, read-out: DNA synthesis, 10 nM 25-OH-D3). Also, the activity at 0.1 µM in series [1] (Homo sapiens, Keratinocyte, 24 h, 100 nM 25-OH-D3, no ceramide, read-out: DNA synthesis, 25-OH-D3 alone) is 86.5 ± 5.47%; in series [1] (Homo sapiens, Keratinocyte, 24 h, Table 4, 100 nM vitamin D3 or its metabolite, no ceramide, read-out: DNA synthesis, No ceramide) it was 88.5 ± 7.2%; in series [1] (Homo sapiens, Keratinocyte, 24 h, Table 5, 100 nM 25-OH-D3, No ceramide, read-out: DNA synthesis, 100 nM 25-OH-D3) it was 88.5 ± 7.2%. The activity at 1 µM in series [1] (Homo sapiens, Keratinocyte, 24 h, 1000 nM 25-OH-D3, no ceramide, read-out: DNA synthesis, 25-OH-D3 alone) was determined as 67.8 ± 5.92%. Moreover, in series [1] (Homo sapiens, Keratinocyte, 24 h, 25-OH-D3 employed alone, read-out: concentration of 25-OH-D3 at which inhibition of keratinocyte growth was observed), the minimal effective concentration fell in the range of 0.1 to 1 µM. The cell growth inhibition result is “cell growth inhibition was also observed” in series [1] (setting [3]) and “statistically significant cell growth inhibition” in series [1] (setting [4]). Also, the cell associated radioactivity in series [2] (setting [5]) is 2.5 % of total added; in series [2] (2 minutes), 3.2 % of total added; in series [2] (5 minutes) it was 0.3 % of total added; in series [2] (10 minutes), 3.4 % of total added; in series [2] (15 minutes), 8.3 % of total added; in series [2] (30 minutes), 8.1 % of total added. Moreover, the cell associated radioactivity in series [2] (60 minutes) was 6.2 % of total added; in series [2] (120 minutes) it was 6.8 % of total added; in series [2] (240 minutes), 9.8 % of total added. Also, in series [2], the “rate of uptake by keratinocytes” value is given as “substantially slower rate”.
In the case of `CCCCCCCCCCCCCCCCN(CC(O)CO)C(C)=O` (stereo not drawn) [neoceramide (Formula F), N-(2,3-dihydroxypropyl)-N-(hexadecyl)ethanamide], the activity at 3 µM in series [1] (setting [6]) was found to be 81.1 ± 4.9%.
For the molecule `CCCCCCCCCCCCCCCCN(CC(O)CO)C(=O)CCCCC` (stereo not drawn) [neoceramide (Formula G), N-(2,3-dihydroxypropyl)-N-(hexadecyl)hexanamide], the activity at 3 µM in series [1] (setting [6]) is 103 ± 12.3%.
Consider `CCCCCCCCCCCCCCCCN(CC(O)CO)C(=O)C(O)CCCCCC` (stereo not drawn) [neoceramide (Formula H), N-(2,3-dihydroxypropyl)-N-(hexadecyl)-2-hydroxyoctanamide], for which the activity at 3 µM in series [1] (setting [6]) worked out at 85.7 ± 0.9%.
Same read-out and setting: in the case of `CCCCCCCCCCCCN(CC(O)CO)C(=O)C(O)CCCCCC` (stereo not drawn) [neoceramide (Formula M), N-(2,3-dihydroxypropyl)-N-(dodecyl)-2-hydroxyoctnamide] it was 81.5 ± 6.4%; in that of `CCCCCCCCCCCCCCC(O)CN(CCO)C(=O)CCCCC` (stereo not drawn) [pseudoceramide (Formula D)], 62 ± 12.8%; in that of `CCCCCCCCCCCCCCCCOCC(O)CN(CCO)C(C)=O` (stereo not drawn) [pseudoceramide (Formula E)], 95.9 ± 22%.
In the case of `C=C1CC[C@H](O)C/C1=C/C=C1\CCC[C@]2(C)[C@@H]([C@H](C)CCCC(C)C)CC[C@@H]12` [vitamin D3, Vitamin D₃], the growth inhibition entry in series [1] (vitamin D3 employed alone (Table 4)) is on record as “does not show statistically significant growth inhibition”. The “synergy with the ceramide in inhibiting keratinocyte growth” value in series [1] (with ceramide of Formula A, even at 100 nM vitamin D3) is given as “did not show any synergy”.
